Assay results reported in patent publication US20160238590A1, “COMPOSITIONS AND METHODS RELATED TO OAT SENSITIVITY” (IMMUSANT, INC., priority 2013, published 2016).
Where no end group is shown, it is not given here. [ ]: non-standard residue; d: D form. pGlu = O=C1CC[C@@H](C(=O)O)N1

Experiments:
Assay type in all cases: cell-based, human
PBMC = test: IFN-γ ELISpot on PBMC of CD patients on day 6 after 3-day oats challenge; details: after 3-day oats challenge
Text: Australian Caucasian HLA-DQ2.5^+ and/or HLA-DQ8^+ CD subjects were recruited by advertisement in the Coeliac Society of Victoria newsletter and all had biopsy-proven CD conforming to ESPGHAN criteria. Patients had been on strict gluten free diet for at least 4 weeks prior to commencing grain challenge. Patients underwent 3-day grain challenge with oats, barley, or combined wheat, barley, and rye muffins, and 6 days after commencement, blood was collected. Day 0 responses were not observed in the selection of patients tested, as described previously^8.
Oats challenge consisted of 100 g dry weight daily of one of three commercial brands of oats: one not tested for wheat contamination (Uncle Toby's; Oats #1), and two shown by R5 ELISA to contain less than 20 ppm wheat gluten (Tilquhilie Pudding; Oats #2 and Freedom Food; Oats #3). Barley challenge consisted of pearl barley (Ward McKenzie) cooked into a risotto (150 g dry weight daily) and the wheat challenge consisted of four 50 g slices of wheat bread daily (Baker's Delight white loaf cut to toasting thickness). The combined wheat, barley, and rye challenge consisted of muffins baked with wheat flour (White Wings), barley flour (Four Leaf Milling), and rye flour (Four Leaf Milling; 22-25 g dry weight each daily). A symptom diary based on a […] Likert scale was completed by participants daily from baseline until day 6.
Two avenin peptide libraries were utilized for epitope screening. These were designed using avenin sequences from GenBank and a customized algorithm, as previously described^9. The initial library consisted of 199 screening-grade 20 mers including all possible 12 mers (Mimotopes). This library was screened with and without tTG pre-treatment. The second library consisted of additional avenin sequences that were synthesized with glutamate substitution at sites predicted to be deamidated by published algorithms^10, 11 removing the requirement for tTG treatment. This library contained 369 screening-grade 20 mers, including all possible 12 mers (Pepscan). The second round avenin library contained wild-type and deamidated versions of the most immunogenic sequences (25 high quality 16 mers from Mimotopes). High quality peptides containing previously described immunogenic sequences from wheat, barley, and rye were used to test for cross-reactivity^8 (Pepscan). High quality hordein and avenin peptides for TCC testing and biochemical studies were ordered from Pepscan, Mimotopes, or GL Biochem.
(§1) Peripheral blood mononuclear cells (PBMC) were isolated from heparinized whole blood using Ficoll-Paque™ Plus density-gradient centrifugation (GE Healthcare). IFN-γ ELISpot (Mabtech) was set up as previously described^8.

Patient 2 TCC-01 = test: IFN-γ ELISpot with T cell clone; details: TCC Patient 2 TCC-01 (Table 5); mean no antigen 1.1
Protocol: as §1
(§2) Isolation of TCC from CD patients was carried out as previously described^8. Briefly, CFSE-labeled PBMC were incubated with antigen for 7 days in IMDM supplemented with 5% heat-inactivated pooled human serum (PHS), 2 mM GlutaMAX™, 100 μM MEM non-essential amino acids (both from Gibco, Invitrogen), and 50 μM 2-mercaptoethanol (Sigma). Proliferated cells were single-cell sorted into 96-well plates containing IL-2, IL-4, anti-CD3 mAb, irradiated feeder cells (allogeneic PBMC and JY-EBV). TCC were expanded and maintained in IL-2 and IL-4 and tested for specificity by ELISpot with irradiated HLA-matched PBMC as antigen-presenting cells. Expanded clones were tested for HLA-DQ restriction, TCR Vbeta usage, and with lysine scans to work out minimal epitopes. See Table 1 below for TCC and epitope information.

Patient 6 TCC-01 = test: IFN-γ ELISpot with T cell clone; details: TCC Patient 6 TCC-01 (Table 5); mean no antigen 2
Protocol: as §1, §2

Patient 14 TCC-01 = test: IFN-γ ELISpot with T cell clone; details: TCC Patient 14 TCC-01 (Table 5); mean no antigen 11.3, high background, SFU >25 considered as positive responses
Protocol: as §1, §2

Substance: QYQPYPEQQQPILQQQ [avenin peptide, Genbank AAB32025 (7-22), wild-type]
- IFN-γ ELISpot response (raw SFU) (PBMC; patient P1, peptide 1 μg/ml): 2 SFU
- IFN-γ ELISpot response (raw SFU) (PBMC; patient P1, peptide 10 μg/ml): 11 SFU
- significant SFU as a percentage of maximal peptide SFU (PBMC; patient P1, peptide 10 μg/ml): * (*: 20-40%)
- IFN-γ ELISpot response (raw SFU) (PBMC; patient P1, peptide 100 μg/ml): 11 SFU
- significant SFU as a percentage of maximal peptide SFU (PBMC; patient P1, peptide 100 μg/ml): * (*: 20-40%)
- IFN-γ ELISpot response (raw SFU) (PBMC; patient P2, peptide 1 μg/ml): 2 SFU
- IFN-γ ELISpot response (raw SFU) (PBMC; patient P2, peptide 10 μg/ml): 10 SFU
- IFN-γ ELISpot response (raw SFU) (PBMC; patient P2, peptide 100 μg/ml): 23 SFU
- significant SFU as a percentage of maximal peptide SFU (PBMC; patient P2, peptide 100 μg/ml): ** (**: 40-70%)
- IFN-γ ELISpot response (raw SFU) (PBMC; patient P3, peptide 1 μg/ml): 1 SFU
- IFN-γ ELISpot response (raw SFU) (PBMC; patient P3, peptide 10 μg/ml): 25 SFU
- significant SFU as a percentage of maximal peptide SFU (PBMC; patient P3, peptide 10 μg/ml): ** (**: 40-70%)
- IFN-γ ELISpot response (raw SFU) (PBMC; patient P3, peptide 100 μg/ml): 4 SFU
- IFN-γ ELISpot response (raw SFU) (PBMC; patient P11, peptide 1 μg/ml): 2 SFU
- IFN-γ ELISpot response (raw SFU) (PBMC; patient P11, peptide 10 μg/ml): 11 SFU
- significant SFU as a percentage of maximal peptide SFU (PBMC; patient P11, peptide 10 μg/ml): (^: 10-20%)
- IFN-γ ELISpot response (raw SFU) (PBMC; patient P11, peptide 100 μg/ml): 4 SFU
- significant SFU as a percentage of maximal peptide SFU (PBMC; patient P11, peptide 100 μg/ml): ** (**: 40-70%)
- IFN-γ ELISpot response (raw SFU) (PBMC; patient P12, peptide 1 μg/ml): 1 SFU
- IFN-γ ELISpot response (raw SFU) (PBMC; patient P12, peptide 10 μg/ml): 3 SFU
- IFN-γ ELISpot response (raw SFU) (PBMC; patient P12, peptide 100 μg/ml): 7 SFU
- IFN-γ ELISpot response (raw SFU) (PBMC; patient P13, peptide 50 μg/ml): 2 SFU
- IFN-γ ELISpot response (raw SFU) (Patient 2 TCC-01): 79 SFU
- IFN-γ ELISpot response (raw SFU) (Patient 6 TCC-01): 3 SFU
- IFN-γ ELISpot response (raw SFU) (Patient 14 TCC-01): 22 SFU

Substance: pEQPFTQPEQPTPIQ ([pGlu]QPFTQPEQPTPIQ) [wheat peptide, AAG17702.1 (78-91) [Q78 to pyroglutamate, Q85 to E], reference compound]
- IFN-γ ELISpot response (raw SFU) (Patient 2 TCC-01): 0 SFU
- IFN-γ ELISpot response (raw SFU) (Patient 6 TCC-01): 65 SFU
- IFN-γ ELISpot response (raw SFU) (Patient 14 TCC-01): 13 SFU

Substance: pEPEQTFPEQPQLPF ([pGlu]PEQTFPEQPQLPF) [wheat peptide, AAK84780.1 (5-18) [Q5 to pyroglutamate, Q7 to E, Q12 to E], reference compound]
- IFN-γ ELISpot response (raw SFU) (Patient 2 TCC-01): 2 SFU
- IFN-γ ELISpot response (raw SFU) (Patient 6 TCC-01): 11 SFU
- IFN-γ ELISpot response (raw SFU) (Patient 14 TCC-01): 33 SFU

Substance: pEPFPEQPEQPYPQQ ([pGlu]PFPEQPEQPYPQQ) [wheat peptide, CAC11056.1 (53-66) [Q53 to pyroglutamate, Q57 to E, Q60 to E], reference compound]
- IFN-γ ELISpot response (raw SFU) (Patient 2 TCC-01): 150 SFU
- IFN-γ ELISpot response (raw SFU) (Patient 6 TCC-01): 1 SFU
- IFN-γ ELISpot response (raw SFU) (Patient 14 TCC-01): 19 SFU

Substance: pEQPFPQPEQPTPIQ ([pGlu]QPFPQPEQPTPIQ) [rye peptide, AAB58403.1 (65-78) [Q65 to pyroglutamate, Q72 to E], reference compound]
- IFN-γ ELISpot response (raw SFU) (Patient 2 TCC-01): 1 SFU
- IFN-γ ELISpot response (raw SFU) (Patient 6 TCC-01): 34 SFU
- IFN-γ ELISpot response (raw SFU) (Patient 14 TCC-01): 20 SFU

Substance: FPEQPVPEQPQPYP [barley peptide, 1103203B (30-43) [Q32 to E, Q37 to E]]
- IFN-γ ELISpot response (raw SFU) (Patient 2 TCC-01): 2 SFU
- IFN-γ ELISpot response (raw SFU) (Patient 6 TCC-01): 99 SFU
- IFN-γ ELISpot response (raw SFU) (Patient 14 TCC-01): 78 SFU
